Earlier results on 1 compound are cited in patent publication US20120064152A1, “Analgesic and Anti-Inflammatory Compositions Comprising Domperidone and Methods of Using Same” (THE BOOTS COMPANY, priority 1996, published 2012).

Read-outs that look alike come from different tables or passages of the source.

The conditions of the series: oral 100 mg sumatriptan.

`CNS(=O)(=O)Cc1ccc2[nH]cc(CCN(C)C)c2c1` [sumatriptan]: the “effectiveness compared with aspirin 900 mg plus 10 mg metoclopramide” value by setting is: (initial attacks) “as effective as aspirin 900 mg plus 10 mg metoclopramide”; (subsequent attacks) “more effective”.
